The source of these data is ChEMBL document CHEMBL1142777, “Identification of potent type I MetAP inhibitors by simple bioisosteric replacement. Part 1: Synthesis and preliminary SAR studies of thiazole-4-carboxylic acid thiazol-2-ylamide derivatives” (Bioorg Med Chem Lett, 2005).

Test [1] deals with T1, Methionine aminopeptidase (Escherichia coli K-12, UniProt P0AE18).
T1 sequence (P0AE18 whole entry): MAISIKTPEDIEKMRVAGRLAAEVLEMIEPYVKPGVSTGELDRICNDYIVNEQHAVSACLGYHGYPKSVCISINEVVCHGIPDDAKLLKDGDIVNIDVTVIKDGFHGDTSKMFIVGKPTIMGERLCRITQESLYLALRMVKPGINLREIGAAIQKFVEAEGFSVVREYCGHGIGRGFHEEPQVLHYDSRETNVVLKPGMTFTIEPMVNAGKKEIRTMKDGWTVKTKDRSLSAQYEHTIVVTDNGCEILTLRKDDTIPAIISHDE
Kind of test: Inhibitory concentration required against Escherichia coli MetAP1 (150 nM).

For test [2], the target named is T2, Methionine aminopeptidase 1 (Saccharomyces cerevisiae S288c, UniProt Q01662).
T2 sequence (Q01662 whole entry): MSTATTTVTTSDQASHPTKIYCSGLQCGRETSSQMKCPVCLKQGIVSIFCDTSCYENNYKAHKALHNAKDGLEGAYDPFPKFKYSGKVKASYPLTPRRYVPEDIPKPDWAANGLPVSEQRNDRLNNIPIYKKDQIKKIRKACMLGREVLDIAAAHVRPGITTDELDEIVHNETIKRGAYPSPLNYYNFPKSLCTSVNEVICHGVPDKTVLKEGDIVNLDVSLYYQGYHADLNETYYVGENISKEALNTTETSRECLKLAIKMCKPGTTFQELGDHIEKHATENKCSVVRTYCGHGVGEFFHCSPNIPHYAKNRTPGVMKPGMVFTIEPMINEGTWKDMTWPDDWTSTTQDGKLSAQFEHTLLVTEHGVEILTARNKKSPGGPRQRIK
Kind of test: Inhibitory concentration required against Saccharomyces cerevisiae MetAP1 (330 nM).

Molecules are shown by their SMILES.

Usually IC50 stands for the concentration that gives 50% inhibition. The low end stands for greater potency in that assay, the high end for weaker potency in that assay. For `O=C(Nc1nccs1)c1cscn1`, the IC50 in test [1] was found to be 110 nM; in test [2], 2260 nM.
For `CC(C)(C)OC(=O)Nc1scnc1C(=O)Nc1nccs1` the same measures were 60 nM and 4620 nM.
Turning to `COC(C)Cc1scnc1C(=O)Nc1nccs1` (stereo not drawn), the IC50 is 74 nM in test [1] and 880 nM in test [2].
As to `O=C(Nc1nccs1)c1ncsc1Cc1ccccc1`, the IC50 in test [1] came to 170 nM; in test [2], 3800 nM.
With `O=C(CN1CCCC1)Nc1scnc1C(=O)Nc1nccs1`, the IC50 in test [1] came to 160 nM; in test [2], 860 nM.
With `O=C(Nc1scnc1C(=O)Nc1nccs1)c1cccc(Cl)c1`, the IC50 in test [1] came out at 270 nM; in test [2], 1830 nM.
Taken in the same sequence, the figures for `CN(C)CC(=O)Nc1scnc1C(=O)Nc1nccs1` were 300 nM and 10500 nM.
For `O=C(O)CC(=O)Nc1scnc1C(=O)Nc1nccs1` the same measures were 88 nM and 4910 nM.
For `O=C(CN1CCOCC1)Nc1scnc1C(=O)Nc1nccs1` the same measures were 110 nM and 4710 nM.
In the case of `O=C(Nc1nccs1)c1ncsc1NC(=O)C1CC1`, the IC50 in test [1] is 42 nM; in test [2] it was 6380 nM.
In test [1], `O=C(CN1CCCCC1)Nc1cccnc1C(=O)Nc1nccs1` displayed an IC50 of 53 nM.
`CC(C)Cc1scnc1C(=O)Nc1nccs1`: the results for the IC50 in test [1] and in test [2] were 100 nM and 990 nM, respectively.
Turning to `CCCCCc1scnc1C(=O)Nc1nccs1`, the IC50 in test [1] was determined as 160 nM; in test [2] it was 980 nM.
Take `Nc1scnc1C(=O)Nc1nccs1`: the IC50 turned out to be 1970 nM in test [1] and 13200 nM in test [2].
As for `CC(=O)OCC(=O)Nc1scnc1C(=O)Nc1nccs1`, the IC50 in test [1] is 76 nM; in test [2], 2650 nM.
Taken in the same sequence, the figures for `O=C(Nc1nccs1)c1ncsc1CCc1ccccc1` were 65 nM and 660 nM.
Turning to `CCCCCCCCCCCc1scnc1C(=O)Nc1nccs1`, the IC50 in test [1] is 76500 nM; in test [2] it was more than 100000 nM.
As for `O=C(Nc1scnc1C(=O)Nc1nccs1)c1ccc(F)cc1`, the IC50 in test [1] is 110 nM; in test [2], 480 nM.
With `Cc1scnc1C(=O)Nc1nccs1`, the IC50 in test [1] was found to be 180 nM; in test [2], 9820 nM.
As for `COC(Cc1scnc1C(=O)Nc1nccs1)C(C)C` (stereo not drawn), the IC50 in test [1] was found to be 89 nM; in test [2], 500 nM.
For the compound `O=C(COCc1ccccc1)Nc1scnc1C(=O)Nc1nccs1`, the IC50 in test [1] was 29 nM; in test [2] it was 1120 nM.
In the case of `O=C(Nc1nccs1)c1ncsc1-c1ccccc1`, the figures for the IC50 in test [1] and in test [2] were 210 nM and 3410 nM, respectively.
For `CCc1scnc1C(=O)Nc1nccs1`, the values for the IC50 in test [1] and in test [2] were 180 nM and 7640 nM, respectively.
`CC(C)=CCC(=O)Nc1cccnc1C(=O)Nc1nccs1` yielded an IC50 in test [2] of 140 nM.
Take `O=C(Nc1nccs1)c1ncsc1NC(=O)C1CCCC1`: the IC50 was 24 nM in test [1] and 130 nM in test [2].
For `C=CC(C)C(=O)Nc1scnc1C(=O)Nc1nccs1` (stereo not drawn) the same measures were 44 nM and 370 nM.
As to `CC(C)=CCCC(C)Cc1scnc1C(=O)Nc1nccs1` (stereo not drawn), the IC50 in test [1] came to 170 nM; in test [2] it was 2110 nM.
Turning to `CCOC(=O)CC(=O)Nc1scnc1C(=O)Nc1nccs1`, the IC50 in test [1] was 66 nM; in test [2], 670 nM.
As to `O=C(Nc1nccs1)c1ncsc1NC(=O)C1CCC1`, the values for the IC50 in test [1] and in test [2] were 40 nM and 250 nM, respectively.
`O=C(Nc1scnc1C(=O)Nc1nccs1)c1ccccc1F`: the IC50 was 76 nM in test [1] and 990 nM in test [2].
Take `CCC(=O)Nc1scnc1C(=O)Nc1nccs1`: the IC50 is 81 nM in test [1] and 220 nM in test [2].
In the case of `O=C(Nc1nccs1)c1ncsc1Cc1ccc(F)cc1Cl`, the IC50 in test [1] is 82 nM; in test [2], 900 nM.
Regarding `COc1ccccc1C(=O)Nc1scnc1C(=O)Nc1nccs1`, the IC50 amounted to 190 nM in test [1] and 3320 nM in test [2].
Regarding `C=CCC(=O)Nc1scnc1C(=O)Nc1nccs1`, the IC50 in test [1] worked out at 54 nM; in test [2], 2630 nM.
Regarding `O=C(CN1CCCCC1)Nc1scnc1C(=O)Nc1nccs1`, the IC50 in test [1] turned out to be 140 nM; in test [2], 1450 nM.
In the case of `COCC(=O)Nc1scnc1C(=O)Nc1nccs1`, the IC50 stood at 92 nM in test [1] and 1530 nM in test [2].
For `CC(C)c1scnc1C(=O)Nc1nccs1` the same measures were 220 nM and 7200 nM.
As to `C=CCC(=O)Nc1cccnc1C(=O)Nc1nccs1`, the IC50 in test [1] stood at 130 nM.
